Experimental findings from EP4467141A1, “PYRAZOLO-QUINOLINES AS SELECTIVE INHIBITORS OF GENOTOXIC STRESS-INDUCED IKK/NF- KB PATHWAYS FOR CANCER THERAPY” (Max-Delbrück-Centrum für Molekulare Medizin in der …, priority 2023, dated 2024) are described below.

In general, inhibition refers to the change of the read-out against control, counted positive when it falls.

Common to all, as to test: Kinase panel study
Type in all cases: biochemical
Details in all cases: read-out: Percentage of inhibition; for inhibition at 1 µM: 1000nM; for inhibition at 10 µM: 10000nM

One test concerns the target T1, MAPKAPK5 (PRAK) (Homo sapiens, UniProt Q8IW41).
T1 construct: purchased Thermo Fisher Scientific
T1 sequence (Q8IW41 1-473): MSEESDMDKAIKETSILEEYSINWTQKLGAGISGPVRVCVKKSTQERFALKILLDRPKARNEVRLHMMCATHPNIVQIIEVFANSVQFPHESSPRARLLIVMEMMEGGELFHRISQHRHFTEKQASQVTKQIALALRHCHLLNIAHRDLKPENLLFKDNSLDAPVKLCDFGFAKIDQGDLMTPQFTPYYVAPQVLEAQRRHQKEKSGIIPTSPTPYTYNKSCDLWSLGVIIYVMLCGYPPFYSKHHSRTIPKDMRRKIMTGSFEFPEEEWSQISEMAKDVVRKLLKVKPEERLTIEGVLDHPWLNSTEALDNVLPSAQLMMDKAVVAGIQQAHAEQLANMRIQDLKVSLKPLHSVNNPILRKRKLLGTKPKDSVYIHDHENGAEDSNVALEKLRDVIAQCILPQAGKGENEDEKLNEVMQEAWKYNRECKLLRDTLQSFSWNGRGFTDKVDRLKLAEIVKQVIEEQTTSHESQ
An outline of the steps: (§1)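 Compounds were tested in vitro against the kinase panel by a service lab. Assays followed standard ZLyte or Adapta protocols. Activity was recorded as % inhibition at 10 µM or 1 µM, with IC50 values where determined.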

For a further test, the target named is T2, EEF2K (Homo sapiens, UniProt O00418).
T2 construct: purchased Thermo Fisher Scientific
A digest of the protocol:
as §1

Another test deals with T3, EPHB3 (Homo sapiens, UniProt P54753).
T3 construct: purchased Thermo Fisher Scientific
T3 sequence (P54753 34-998): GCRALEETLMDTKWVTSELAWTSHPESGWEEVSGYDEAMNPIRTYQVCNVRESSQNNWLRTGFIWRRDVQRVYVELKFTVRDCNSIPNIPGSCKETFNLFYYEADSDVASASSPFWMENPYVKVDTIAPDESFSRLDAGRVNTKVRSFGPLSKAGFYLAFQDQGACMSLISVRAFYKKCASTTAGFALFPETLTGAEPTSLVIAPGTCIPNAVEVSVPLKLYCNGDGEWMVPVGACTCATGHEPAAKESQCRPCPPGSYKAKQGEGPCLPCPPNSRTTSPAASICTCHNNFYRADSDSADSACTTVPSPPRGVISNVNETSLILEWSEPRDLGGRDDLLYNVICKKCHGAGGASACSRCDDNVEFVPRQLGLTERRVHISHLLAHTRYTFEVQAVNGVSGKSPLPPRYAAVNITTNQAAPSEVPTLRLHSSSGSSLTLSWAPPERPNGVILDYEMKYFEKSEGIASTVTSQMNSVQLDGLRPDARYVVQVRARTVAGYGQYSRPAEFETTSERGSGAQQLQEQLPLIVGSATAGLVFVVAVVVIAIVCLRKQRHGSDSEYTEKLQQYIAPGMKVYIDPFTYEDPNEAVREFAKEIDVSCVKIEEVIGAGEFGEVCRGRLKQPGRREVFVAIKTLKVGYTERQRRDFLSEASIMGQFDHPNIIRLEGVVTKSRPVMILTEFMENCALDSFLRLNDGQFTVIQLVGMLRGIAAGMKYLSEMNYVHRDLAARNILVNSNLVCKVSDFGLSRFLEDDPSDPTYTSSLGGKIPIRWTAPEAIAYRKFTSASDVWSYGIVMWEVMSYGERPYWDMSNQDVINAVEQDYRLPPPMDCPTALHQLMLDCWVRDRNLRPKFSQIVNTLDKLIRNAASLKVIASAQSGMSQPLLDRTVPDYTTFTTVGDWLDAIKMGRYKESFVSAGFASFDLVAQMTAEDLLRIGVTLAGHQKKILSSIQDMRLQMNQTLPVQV
An outline of the steps: as §1

A further test has as its target T4, PRKACA (PKA) (Homo sapiens, UniProt P17612).
T4 construct: purchased Thermo Fisher Scientific
An outline of the steps:
as §1

The target in the next test is T5, ABL2 (Arg) (Homo sapiens, UniProt P42684).
T5 construct: purchased Thermo Fisher Scientific
T5 sequence (P42684 whole entry): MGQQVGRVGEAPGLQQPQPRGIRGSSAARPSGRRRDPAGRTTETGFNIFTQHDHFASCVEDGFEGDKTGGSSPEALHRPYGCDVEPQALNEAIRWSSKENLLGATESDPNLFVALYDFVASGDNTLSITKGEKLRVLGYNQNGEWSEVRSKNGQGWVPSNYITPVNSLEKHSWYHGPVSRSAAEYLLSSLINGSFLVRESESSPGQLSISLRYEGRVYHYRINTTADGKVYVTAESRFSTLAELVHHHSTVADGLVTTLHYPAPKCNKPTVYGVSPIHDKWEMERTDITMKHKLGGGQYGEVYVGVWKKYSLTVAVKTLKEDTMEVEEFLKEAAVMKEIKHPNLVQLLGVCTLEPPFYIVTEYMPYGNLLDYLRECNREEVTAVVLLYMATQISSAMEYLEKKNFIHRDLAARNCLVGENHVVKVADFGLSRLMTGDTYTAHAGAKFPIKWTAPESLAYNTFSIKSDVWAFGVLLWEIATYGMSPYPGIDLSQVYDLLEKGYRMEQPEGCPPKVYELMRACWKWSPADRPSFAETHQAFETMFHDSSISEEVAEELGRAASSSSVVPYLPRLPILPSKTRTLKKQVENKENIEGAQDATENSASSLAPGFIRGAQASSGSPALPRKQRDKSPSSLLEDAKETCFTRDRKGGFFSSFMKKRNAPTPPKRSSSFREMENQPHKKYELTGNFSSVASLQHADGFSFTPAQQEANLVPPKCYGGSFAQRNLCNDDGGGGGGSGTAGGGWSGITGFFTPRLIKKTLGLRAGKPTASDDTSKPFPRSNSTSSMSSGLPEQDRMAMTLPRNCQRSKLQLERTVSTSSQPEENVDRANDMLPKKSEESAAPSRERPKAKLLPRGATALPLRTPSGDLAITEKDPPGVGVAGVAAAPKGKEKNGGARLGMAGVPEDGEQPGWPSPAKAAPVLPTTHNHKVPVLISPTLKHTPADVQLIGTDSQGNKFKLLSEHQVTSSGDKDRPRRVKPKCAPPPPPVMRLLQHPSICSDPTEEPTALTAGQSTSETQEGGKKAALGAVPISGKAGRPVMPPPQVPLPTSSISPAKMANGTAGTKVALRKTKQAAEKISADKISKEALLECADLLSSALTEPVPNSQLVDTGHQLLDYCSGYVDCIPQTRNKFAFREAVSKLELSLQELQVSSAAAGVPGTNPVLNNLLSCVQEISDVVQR
An outline of the steps:
as §1

Molecules are shown by their SMILES.

Turning to `COc1ccc2c(c1OC)c(=O)n1c3ccc(O)cc3c3ccnc2c31` [MW01, 5-Hydroxy-10,11-dimethoxy-9H-benzo[c]indolo[3,2,1-ij][1,5]naphthyridin-9-one], the inhibition at 1 µM at MAPKAPK5 (PRAK) amounted to 8%; on EEF2K, 11%; on EPHB3, 1%; at PRKACA (PKA) it was 6%; on ABL2 (Arg), 9%. Moreover, the inhibition at 10 µM on MAPKAPK5 (PRAK) worked out at 18%; at EEF2K it was 37%; at EPHB3, 11%; on PRKACA (PKA), 17%; at ABL2 (Arg) it was 21%.

Consider `COc1ccc2cc3c(N)nn(C(=O)c4cccc(N(C)C)c4)c3nc2c1` [MW05, (3-Amino-7-methoxypyrazolo[3,4-b]quinolin-1-yl)-[3-(dimethylamino)phenyl]methanone], for which the inhibition at 1 µM was found to be 7% at MAPKAPK5 (PRAK); 3% on EEF2K; 6% on EPHB3; 12% on PRKACA (PKA); 5% at ABL2 (Arg). Further, the inhibition at 10 µM is 7% at MAPKAPK5 (PRAK); 5% at EEF2K; 5% at EPHB3; -15% at PRKACA (PKA); 2% on ABL2 (Arg).
